In PubChem BioAssay (NCI):
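Growth conditions: 96-well plates. Treatment: test compound, 48 hours, 5 concentrations. Analysis: linear interpolation between bracketing concentrations; unreached endpoints set to highest concentration. At the GI50, growth is halved. TGI denotes the concentration required for complete inhibition of growth.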

Test system: SF-295 CNS
Assay: growth of human tumour cells (NCI), 48 h

| SMILES | TGI [µM] | GI50 [nM] |
| --- | --- | --- |
| CNC=O.[O]=[Ge].[O]=[Ge].[O]=[Ge].[O]=[Ge][OH].[O]=[Ge][OH] | > 100 |  |
| N#CCCN(c1ccc(/C=C2\N=C(c3ccc(Cl)cc3)OC2=O)cc1)S(=O)(=O)c1ccccc1 | > 100 |  |
| COc1ccc(C2CC(=O)c3c(OC)cc(OC)cc3O2)cc1 (centres undefined) | > 100 | > 100000 |
| O=C(/C=C/c1ccccc1Cl)c1ccccc1Cl | 51.2 |  |
| CCOC(=O)[C@H]1Nc2ccc(C)cc2C2c3ccccc3CC21 (some centres undefined) | > 100 |  |
| C[C@]12CC[C@@H]3c4ccc(O)cc4C[C@@H](CCCCCCCCCS(=O)CCCC(F)(F)C(F)(F)F)[C@H]3[C@@H]1CC[C@@H]2O (some centres undefined) | > 100 | > 100000 |
| COc1cc(-c2c(C#N)c(N)n3c(nc4ccccc43)c2C#N)cc(Br)c1OC | > 100 | > 100000 |
| N#CCCN(CCC#N)c1ccc(/C=C2\N=C(CN3C(=O)c4ccccc4C3=O)OC2=O)cc1 | > 100 |  |
| Cn1cc(C2=C(c3cn(CCCN=C(N)N)c4ccccc34)C(=O)NC2=O)c2ccccc21 | > 25 | > 25000 |
| N#C/C(C(=S)Nc1ccccc1)=C1/NN=C2c3ccccc3C(=O)NN21 | 49.5 | 17100 |
| CC#CC(=O)Nc1ccccc1CC(c1c[nH]c2ccccc12)c1c[nH]c2ccccc12 | 58.3 |  |
| NCCCNCCSSCCCCS(=O)O | > 100 |  |
| C[C@]12CC[C@@H]3c4ccc(Oc5nc(N6CC6)nc(N6CC6)n5)cc4CC[C@H]3[C@@H]1CCC2=O | 15.3 | 1170 |
| COc1cc(C(=O)O[C@H](C(N)=O)[C@]2(C)CO2)c2ccccc2c1 | 37.9 | 20400 |
| Cc1cccc(C(C)(C)C)c1NC(=O)CCc1n[nH]c(=S)o1 | > 100 |  |
| O=S(O)CCCCSSCCCCSSCCCCS(=O)O | > 100 |  |
| CC(=O)SCCC1c2[nH]c3ccccc3c2CCN1O (centres undefined) | > 100 |  |
| COc1ccc(S(=O)(=O)N(Cc2ccc3c(n2)C=CC(C)(C)O3)C2CCC2)cc1OC | 0.542 | 13.4 |
| CCCCn1c(-c2ccc(C(=O)O/N=C(\N)c3ccc(OC)cc3)cc2)nc(-c2ccccc2)c1-c1ccccc1 | 2.97 | 1530 |
| CC(C)=CC(=O)N1CCN(C(=O)C=C(C)C)CC1 | > 100 |  |
| CCCCC/C=C/C/C=C/CCCCCCCC1=NC(C)(C)CN1C(C)C | 2.83 | 1490 |
| C[C@]12CC[C@@H]3c4ccc(O)cc4CC[C@H]3[C@@H]1CC[C@@H]2NS(=O)(=O)c1ccc(C(F)(F)F)cc1 | 3.9 | 1910 |
| O=C(CCCSc1nc(-c2ccc(Cl)cc2)cc(-c2ccc(Cl)cc2)n1)NO | 6.9 | 1170 |

Test system: HCT-116 colon
Assay: growth of human tumour cells (NCI), 48 h

| SMILES | GI50 [µM] | TGI [µM] |
| --- | --- | --- |
| Cc1c2c(nn1-c1ccc(S(=O)(=O)/N=C3\SCC(=O)N3C(=O)c3ccccc3)cc1)-c1ccccc1CC2 | 26.4 | 58.8 |
| CN(C)C(=S)/N=c1\ss/c(=N\C(=S)N(C)C)n1-c1ccc2c(c1)OCO2 |  | > 100 |
| COc1ccc(C(=O)/C=C/c2cccnc2Nc2cc(OC)c(OC)c(OC)c2)cc1 | 0.54 | 2.1 |
| Nc1c(-c2ccc(Br)cc2)[n+]([O-])c2ccccc2[n+]1[O-] |  | > 100 |
| CCCCNC(=O)NS(=O)(=O)c1ccc(N2N=C(c3ccc(C)cc3C)CC2c2ccc(N(C)C)cc2)cc1 (centres undefined) | 3.86 | > 100 |
| C#CC[C@]12CC(=O)CC[C@H]1CC(=O)C2 |  | > 100 |
| CNC=O.[O]=[Ge].[O]=[Ge].[O]=[Ge].[O]=[Ge][OH].[O]=[Ge][OH] |  | > 100 |
| N#CCCN(c1ccc(/C=C2\N=C(c3ccc(Cl)cc3)OC2=O)cc1)S(=O)(=O)c1ccccc1 |  | > 100 |
| Cc1cc(NS(=O)(=O)c2ccc(NC(=O)c3cccc4c(=O)c5ccccc5[nH]c34)cc2)no1 |  | > 100 |
| COc1ccc(C2CC(=O)c3c(OC)cc(OC)cc3O2)cc1 (centres undefined) | > 100 | > 100 |
| O=C(/C=C/c1ccccc1Cl)c1ccccc1Cl |  | 28.5 |
| CCOC(=O)[C@H]1Nc2ccc(C)cc2C2c3ccccc3CC21 (some centres undefined) |  | > 100 |
| COc1ccc(-c2nc(-c3nc4ccc(C)cc4[nH]3)c3ccccn23)cc1 | 3.26 | 9.46 |
| C[C@]12CC[C@@H]3c4ccc(O)cc4C[C@@H](CCCCCCCCCS(=O)CCCC(F)(F)C(F)(F)F)[C@H]3[C@@H]1CC[C@@H]2O (some centres undefined) |  | > 100 |
